From PubChem BioAssay (NCI)
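Briefly, cells in 96-well plates were exposed to five compound concentrations for 48 h, and endpoints were estimated by linear interpolation. At the GI50, growth is halved. Definition used: TGI = concentration required for complete inhibition of growth.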

Tested on: MDA-MB-468 breast
Assay: DTP human tumour cell line panel, 48 h

| Structure (SMILES) | GI50 [nM] | TGI [nM] |
| --- | --- | --- |
| O=C(N/N=C/C=C/c1ccc([N+](=O)[O-])o1)c1cc2ccccc2cc1O | 1360 | 3220 |
| [Cl][Sn]([c]1ccccc1)([c]1ccccc1)[c]1ccccc1 | 137 | 326 |
| COc1ccc(C/C(C)=C(/c2ccc(OCCN3CCCCC3)cc2)c2ccc(OC(=O)NCc3ccccc3)cc2)cc1 | 400 | 789 |
| Cc1cc(NC(=O)NC(=O)c2ccccc2NC(=O)C(C)N)ccc1Oc1ncc(Br)cn1 (configuration not stated) | < 10 | 28500 |
| CN1CCN(C(=O)C(C)(C)c2ccc(C(=O)Nc3cn4cc(-c5ccncc5)ccc4n3)cc2)CC1 | 162 | 1180 |
| COc1ccc2c(c1)c(CC(=O)[Se]C)c(C)n2C(=O)c1ccc(Cl)cc1 | > 419 | > 681 |
| CN(C)CCN1C(=O)c2c(c3c4ccccc4n4c3c3c2c2ccccc2n3C2CC(O)C(O)C4(C)O2)C1=O (configuration not stated) | 1520 | 5650 |
| Cc1[nH]c2ccccc2c1CCCO | > 100000 | > 100000 |
| O=C(Nc1cccc(-n2cc(-c3ccncc3)c(-c3ccc(Cl)c(O)c3)n2)c1)Nc1cc(C(F)(F)F)cc(C(F)(F)F)c1 | 264 | 2650 |
| C=C(C)[C@@H]1CC[C@]2(C(=O)N[C@H](CO)Cc3ccccc3)CC[C@]3(C)[C@H](CC[C@@H]4[C@@]5(C)CCCNC(C)(C)[C@@H]5CC[C@]43C)[C@@H]12 | 1520 | 3030 |
| Cc1c(Cl)cccc1C(=O)Nc1nc2c(s1)CN(C(=O)c1ccc(C(F)(F)F)cc1)CC2 | 36.5 | > 35700 |
| COc1cccc(-c2c[nH]c3c(N/N=C/c4ccncc4)ncnc23)c1 | 848 | 3890 |
| Cc1cc([N+](=O)[O-])c(NS(=O)(=O)c2cccc(C(=O)O)c2)cc1-c1cccnc1 | > 100000 | > 100000 |
| O=C1OCC2=C1C(c1cccc(Cl)c1)c1cc3c(cc1N2CCO)OCCO3 (configuration not stated) | 26.5 | 516 |
| O=C1C(Nc2ccc(Cl)cc2)=C(I)C(=O)c2ncccc21 | 1510 | 3820 |
| CC1=C(C(=O)Nc2ccc3n[nH]c(C)c3c2)C(c2ccc(C(F)(F)F)cc2)CC(=O)N1 (configuration not stated) | 7090 | > 25000 |
